Key:
[1] = target: 92 kDa gelatinase (MMP9) (Homo sapiens, UniProt P14780); assay: MMP9 enzyme inhibition assay (fluorogenic peptide substrate McaPLGLDpaAR); type: biochemical; conditions: recombinant human 92 kDa gelatinase, 37° C., 2 hours
Experimental: (§1) Compounds were tested for inhibitory activity against 92 kDa gelatinase (MMP9) in an assay using a coumarin-labelled peptide substrate, (7-methoxycoumarin-4-yl)acetyl-Pro-Leu-Gly-Leu-(3-[2,4-dinitrophenyl]-L-2,3-diaminopropionyl)-Ala-Arg-NH2 (McaPLGLDpaAR) (Knight et al, FEBS Lett. 1992; 263-266).
(§2) Stock solutions were made up as follows: • Assay Buffer: 100 mM Tris-HCl pH 7.6 containing 100 mM NaCl, 10 mM CaCl2, and 0.05% Brij 35 • Substrate: 0.4 mM McaPLGLDpaAR (from Bachem) (0.437 mg/ml) stock solution in 100% DMSO (stored at −20° C.). Dilute to 8 μM in assay buffer. • Enzyme: Recombinant human 92 kDa gelatinase (MMP-9; APMA (4-aminophenyl • mercuric acetate)—activated if necessary) appropriately diluted in assay buffer.
(§3) Test Compounds were prepared initially as 10 mM compound solution in 100% DMSO, diluted to 1 mM in 100% DMSO, then serially diluted 3-fold in 100% DMSO across columns 1-10 of a 96-well microtitre plate Assay concentration range, 100 μM (column 1) to 5.1 nM (column 10)
(§4) The assay was performed in a total volume of 100 μl per well in 96-well microtitre plates. Activated enzyme (20 μl) was added to the wells followed by 20 μl of assay buffer. Appropriate concentrations of test compounds dissolved in 10 μl of DMSO were then added followed by 50 μl of McaPLGLDpaAR (8 μM, prepared by dilution of DMSO stock in assay buffer). For each assay ten concentrations of test compound were examined in duplicate. Control wells lack either enzyme or test compound. The reactions were incubated at 37° C. for 2 hours. The fluorescence at 405 nm was measured immediately with an SLT Fluostar fluorometer (SLT Labinstruments GmbH, Grödig, Austria) using 320 nm excitation, without stopping the reaction.
(§5) The effect of the test compound was determined from the dose response curve generated by the 10 duplicate concentrations of inhibitor. The IC50 (the concentration of compound required to give a 50% decrease in enzyme activity) was obtained by fitting data to the equation, Y=a+((b−a)/(1+(c/X)^d)). (Y=inhibition achieved for a particular dose; X=the dose in nM; a=minimum y or zero % inhibition; b=maximum y or 100% inhibition; c=is the IC50; d=is the slope). The result was rounded to one significant figure.

[2] = target: T1, collagenase (MMP1) (Homo sapiens, UniProt P03956); assay: MMP1 enzyme inhibition assay (fluorogenic peptide substrate McaPLGLDpaAR); type: biochemical; conditions: protocol as for MMP9 assay
T1 sequence (P03956 100-469): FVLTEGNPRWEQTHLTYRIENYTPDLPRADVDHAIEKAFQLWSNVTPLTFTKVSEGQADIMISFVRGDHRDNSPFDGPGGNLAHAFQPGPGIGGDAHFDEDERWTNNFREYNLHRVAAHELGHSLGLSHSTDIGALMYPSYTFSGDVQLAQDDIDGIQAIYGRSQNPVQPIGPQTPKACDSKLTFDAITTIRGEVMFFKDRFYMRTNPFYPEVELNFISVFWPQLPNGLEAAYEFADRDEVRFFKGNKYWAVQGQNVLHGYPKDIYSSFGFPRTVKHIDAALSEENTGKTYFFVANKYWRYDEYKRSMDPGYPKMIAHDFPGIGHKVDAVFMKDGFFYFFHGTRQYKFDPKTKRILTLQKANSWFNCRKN
Experimental: as §2, §3, §4, §5
as §1, with “• Compounds” for “Compounds”, “collagenase (MMP1)” for “92 kDa gelatinase (MMP9)”, “263-266). The protocol for this assay was as described for the MMP9 assay above.” for “263-266).”

[3] = tested on: IL2-induced lymphocyte recruitment; assay: IL2-induced peritoneal recruitment of lymphocytes; type: in vivo, C3H/HEN mice; conditions: mice, 15 min prior to IL2, cells counted 24 hours after IL2
Experimental: Administration of IL2 intraperitoneally causes migration of lymphocytes into the intraperitoneal cavity. This is a model for the cellular migration that occurs during inflammation.
C3H/HEN mice (Elevage Janvier, France) were intraperitoneally injected with IL2 (Serono Pharmaceutical Research Institute, 20 μg/kg, in saline). Compounds of the invention were suspended in 0.5% carboxymethylcellulose (CMC)/0.25% tween-20 and were administered by sc or po route (10 ml/kg) 15 min prior to administration of IL2.
Twenty-four hours after administration of IL2, peritoneal white blood cells were collected by 3 successive lavages of the peritoneal cavity with 5 ml phosphate buffered saline (PBS)-1 mM EDTA (+4° C.). The suspension was centrifuged (1700 g×10 min at +4° C.). The resulting pellet was suspended in 1 ml PBS-1 mM EDTA.
Lymphocytes were identified and counted using a Beckman/Coulter counter.
The animals were divided into 5 groups (6 mice each group):
Group 1: (baseline) received 0.5% CMC/0.25% tween-20 (vehicle of compound of the invention) and saline (vehicle of IL2); Group 2: (control IL2) received 0.5% CMC/0.25% tween-20 and injection of IL2; Group 3: Experimental group (Compound of the invention Dose 1) received a compound of the invention and injection of IL2; Group 4: Experimental group (Compound of the invention Dose 2) received a compound of the invention and injection of IL2; Group 5: Experimental group (Compound of the invention Dose 3) received a compound of the invention and injection of IL2; Group 6: Reference group received reference compound dexamethasone and injection of IL2
Inhibition of lymphocyte recruitment was calculated as follows:
Where Ly 1=Number of lymphocytes in group 1 (E3/μl), Ly 2=Number of lymphocytes in group 2 (E3/μl), Ly X=Number of lymphocytes in group X (3-5) (E3/μl)
The dose of compound of the invention required to inhibit lymphocyte recruitment by 50% (ID50) was calculated using a curve-fitting routine.

Sequence of 92 kDa gelatinase (MMP9) (P14780 107-707 limits assumed): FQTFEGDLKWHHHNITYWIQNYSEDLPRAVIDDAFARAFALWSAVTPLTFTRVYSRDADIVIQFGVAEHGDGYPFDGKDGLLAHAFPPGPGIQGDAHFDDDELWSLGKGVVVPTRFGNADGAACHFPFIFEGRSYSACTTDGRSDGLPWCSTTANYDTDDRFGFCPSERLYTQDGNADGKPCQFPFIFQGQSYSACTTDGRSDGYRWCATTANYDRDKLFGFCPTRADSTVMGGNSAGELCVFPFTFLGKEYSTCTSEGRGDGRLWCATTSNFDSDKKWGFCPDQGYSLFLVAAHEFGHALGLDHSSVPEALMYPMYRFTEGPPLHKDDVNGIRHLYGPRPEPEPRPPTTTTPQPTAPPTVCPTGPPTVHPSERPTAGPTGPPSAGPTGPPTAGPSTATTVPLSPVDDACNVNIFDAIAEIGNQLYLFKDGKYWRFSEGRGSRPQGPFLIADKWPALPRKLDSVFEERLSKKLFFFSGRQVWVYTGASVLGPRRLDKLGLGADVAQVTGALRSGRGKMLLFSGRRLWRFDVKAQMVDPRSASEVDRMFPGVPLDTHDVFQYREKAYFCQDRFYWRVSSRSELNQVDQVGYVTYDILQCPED

- IC50 [1]: 100 to 1000 nM
- IC50 [2]: 100 to 1000 nM
Compound: CC(C)C[C@@H](C(=O)N[C@H](c1noc(-c2cccs2)n1)C(C)(C)C)[C@H](O)C(=O)NO [Example 13, 2S-Hydroxy-3R-[1S-(5-thiophen-2-yl-[1,2,4]oxadiazol-3-yl)-2,2-dimethyl-propylcarbamoyl]-5-methyl Hexanohydroxamic Acid]
- ID50 for inhibition of IL2-induced peritoneal recruitment of lymphocytes ([3]; Oral route): 1 mg/kg
- ID50 for inhibition of IL2-induced peritoneal recruitment of lymphocytes ([3]; Subcutaneous route): 0.1 mg/kg

Source: patent US20100035943A1, “Oxa-and thiadiazoles and their use as metalloproteinase inhibitors” (VERNALIS (OXFORD) LTD, priority 2002, published 2010)
